What was measured:
isolated rat aorta = test: Vasodilating effect on blood vessel excised from rats (methoxamine-constricted aorta); details: isolated rat aorta constricted with methoxamine (3 μM); read-out: Concentration for inhibition of constriction induced by methoxamine in rat arota (IC50)
Source text: Rats (350˜450 g, obtained from the Experimental Animal Team of the Korea Research Institute of Chemical Technology) were knocked to be unconscious by hitting the occipital region, sacrificed by cervical dislocation, and underwent thoracotomy. After being quickly removed, the thoracic aorta was deprived of the adipose tissue and cut into aortic rings of 3 mm width. The aorta was lightly rubbed with cotton club soaked in a modified Krebs Henseleit buffer (Physiological salt solution) to remove the inner epithelial layer therefrom. While being hung in an organ bath containing a physiological buffer, the vascular smooth muscle was allowed to equilibrate under a resting tension of 2 g and then, stand for 1 hour at 37° C. for stabilization, supplying a carbogen consisting of 95% O2˜5% CO2.
Thereafter, the vascular smooth muscle was constricted with 10^−5M phenylephrine and washed several times with physiological saline solution. The said procedure was repeated again to ensure the stable reactivity of vascular smooth muscle to repetitive constriction/relaxation.
Thereafter, 3×10^−6 M methoxamine was applied to induce an intensive constriction in the vascular smooth muscle. When the vasoconstriction induced by the methoxamine was reached and maintained to a maximum, test compounds and control material was cumulatively added to the organ bath in concentration of 1, 3, 10 and 30 μM, respectively, to examine the vasodilating effect. Cromakalim, BMS-180448 (the compound of formula 4) and BMS-191095 (the compound of formula 5), known to be the first generation KATP opener with potent vasodilating effect were used as control materials.
The change rate of constriction by the addition of the drugs compared to the maximal constriction induced by methoxamine was calculated to plot a concentration-relaxation response curve. Through a least linear regression analysis, IC50 that the drug concentration at which the vascular tissue is relaxed to 50% extent of the maximal constriction, was obtained for each drug.

cortical neuron cells = test: Protective effect on iron-induced neuronal cell injury (LDH release); type: cell-based; details: FeSO4 50 μM; for protective effect on neuron cell: Inhibition (%, 30 μM compound addition): LDH reduction vs control; for IC50: LDH
Procedure: From the brains of 17˜18 day-old embryos, cortical neuron cells were isolated and then, cultured at 37° C. for 7˜9 days in a 5% CO2 incubator. The said cortical cell cultures were washed twice with MEM (Minimum essential medium) to reduce the serum level to 0.2%. […] Then, the compound of the said concentration was pre-treated for 30 min, respectively. For the experiment, test compound was dissolved in DMSO and diluted in a medium. At this time, the final concentration of DMSO was not allowed to exceed 0.1%. For control group, only vehicle was applied.
After the said pre-treatment, FeSO4 was added to the medium for a final concentration to be 50 μM. The medium was cultured in CO2 incubator for 24 hours. During the incubation, lactate dehydrogenase (LDH) was released by iron. The serum level of lactate dehydrogenase released into the medium was measured to assess necrosis of neuronal cell by the oxidative toxicity of iron. The protective effect on neuron cells of the test compounds was evaluated by calculating the LDH reduction rate of treatment-group compared with that of the control group.

[1] = Acute oral toxicity test in rats; details: SD, rat, in vivo, single oral dose, suspended in 0.5% methyl cellulose, read-out: lethal dose (LD50) for oral administration
Procedure: In this test, six-week old SPF SD rats were used with two rats assigned to each group. Each group was consisted of two rats. The compounds prepared in example 1, 7, 11, 17, 22, 24, 26, 28, 30, 32, 34, 42, 52, 54, 55, 56, 57, 59, 60, 61, 70, 75, 77, 79, 81, 83, 85, and 89 were suspended in 0.5% methyl cellulose, respectively. […] Also, hematological test and biochemical analysis were accomplished. After sacrificing the animals, autopsy was performed for macroscopic observations of the organs and tissues. As a result, there was no significant changes in clinical symptoms, body weight and mortalities. Also in hematology, serum chemistry parameters, macroscopic observation and drug-related changes were not observed.

| IC50 (isolated rat aorta) | SMILES | protective effect on neuron cell: Inhibition (%, 30 μM compound addition) (cortical neuron cells; 24 hours) | IC50 (cortical neuron cells; Cortical neurone, 24 h) | IC50 (cortical neuron cells; 24 hours) | LD50 [1] |
| --- | --- | --- | --- | --- | --- |
| 0.067 µM | CC1(C)Oc2ccc(C#N)cc2C(N2CCCC2=O)C1O (stereo not drawn) [Cromakalim, reference compound] | – | – | – | – |
| > 30 µM | COC(OC)[C@@]1(C)Oc2ccc(N)cc2[C@@H](N(Cc2nnn(C)n2)c2ccc(Cl)cc2)[C@@H]1O [Example 10, (2S,3S,4R)-6-amino-4-[N-(4-chlorophenyl)-N-(2-methyl-2H-tetrazol-5-ylmethyl)amino]-3-hydroxy-2-methyl-2-dimethoxymethyl-3,4-dihydro-2H-1-benzopyran] | 103% | 2.2 µM | – | – |
| 27.4 µM | COC(OC)[C@@]1(C)Oc2ccc([N+](=O)[O-])cc2[C@H](N(Cc2nnn(C)n2)c2cccc(Cl)c2)[C@H]1O [Example 25, (2S,3R,4S)-6-nitro-4-[N-(3-chlorophenyl)-N-(2-methyl-2H-tetrazol-5-ylmethyl)amino]-3-hydroxy-2-methyl-2-dimethoxymethyl-3,4-dihydro-2H-1-benzopyran] | 83% | – | – | – |
| – | COC(OC)[C@@]1(C)Oc2ccc([N+](=O)[O-])cc2[C@H](N(Cc2nnn(C)n2)c2ccc(C(F)(F)F)cc2)[C@H]1O [Example 33, (2S,3R,4S)-6-nitro-4-[N-(4-trifluoromethylphenyl)-N-(2-methyl-2H-tetrazol-5-ylmethyl)amino]-3-hydroxy-2-methyl-2-dimethoxymethyl-3,4-dihydro-2H-1-benzopyran] | 91% | 6 µM | – | – |
| – | COC(OC)[C@@]1(C)Oc2ccc(N)cc2[C@H](N(Cc2nnn(C)n2)c2ccccc2)[C@H]1O [Example 55, (2S,3R,4S)-6-amino-4-[N-(2-methyl-2H-tetrazol-5-ylmethyl)phenylamino]-3-hydroxy-2-methyl-2-dimethoxymethyl-3,4-dihydro-2H-1-benzopyran] | – | – | – | > 2000 mg/kg |
| – | COC(OC)[C@@]1(C)Oc2ccc(N)cc2[C@H](N(Cc2ccccc2)Cc2nnn(C)n2)[C@H]1O [Example 57, (2S,3R,4S)-6-amino-4[N-benzyl-N-(2-methyl-2H-tetrazol-5-ylmethyl)amino]-3-hydroxy-2-methyl-2-dimethoxymethyl-3,4-dihydro-2H-1-benzopyran] | 94% | 3.1 µM | – | > 2000 mg/kg |
| > 30 µM | COC(OC)[C@@]1(C)Oc2ccc(N)cc2[C@H](N(Cc2nnn(C)n2)c2ccc(O)cc2C)[C@H]1O [Example 65, (2S, 3R,4S)-6-amino-4-[N-(2methyl-4-hydroxyphenyl)-N-(2-methyl-2H-tetrazol-5-ylmethyl)amino]-3-hydroxy-2-methyl-2-dimethoxymethyl-3,4-dihydro-2H-1-benzopyran] | – | – | – | – |
| – | COC(OC)[C@@]1(C)Oc2ccc(N)cc2[C@H](N(Cc2nnn(C)n2)c2cc(C)ccc2O)[C@H]1O [Example 71, (2S,3R,4S)-6-amino-4-[N-(2-hydroxy-5-methylphenyl)-N-(2-methyl-2H-tetrazol-5-ylmethyl)amino]-3-hydroxy-2-methyl-2-dimethoxymethyl-3,4-dihydro-2H-1-benzopyran] | 89% | < 1 µM | 0.9 µM | – |
| – | COC(OC)[C@@]1(C)Oc2ccc([N+](=O)[O-])cc2[C@@H](N(Cc2nnn(C)n2)c2ccc(C(F)(F)F)cc2)[C@@H]1O [Example 74, (2S,3S,4R)-6-nitro-4-[N-(4-trifluoromethylphenyl)-N-(2-methyl-2H-tetrazol-5-ylmethyl)amino]-3-hydroxy-2-methyl-2-dimethoxymethyl-3,4-dihydro-2H-1-benzopyran] | 90% | 5.3 µM | – | – |
| – | COC(OC)[C@]1(C)Oc2ccc([N+](=O)[O-])cc2[C@@H](N(Cc2nnn(C)n2)c2ccc(C(F)(F)F)cc2)[C@@H]1O [Example 76, (2R,3S,4R)-6-nitro-4-[N-(4-trifluoromethylphenyl)-N-(2-methyl-2H-tetrazol-5-ylmethyl)amino]-3-hydroxy-2-methyl-2-dimethoxymethyl-3,4-dihydro-2H-1-benzopyran] | 52% | 5.7 µM | – | – |
| – | COC(OC)[C@]1(C)Oc2ccc([N+](=O)[O-])cc2[C@H](N(Cc2nnn(C)n2)c2ccc(C(F)(F)F)cc2)[C@H]1O [Example 78, (2R,3R,4S)-6-nitro-4-[N-(4-trifluoromethylphenyl)-N-(2-methyl-2H-tetrazol-5-ylmethyl)amino]-3-hydroxy-2-methyl-2-dimethoxymethyl-3,4-dihydro-2H-1-benzopyran] | 69% | 4.4 µM | – | – |
| – | COC(OC)[C@]1(C)Oc2ccc(N)cc2[C@H](N(Cc2nnn(C)n2)c2ccc(C(F)(F)F)cc2)[C@H]1O [Example 79, (2R,3R,4S)-6-amino-4-[N-(4-trifluoromethylphenyl)-N-(2-methyl-2H-tetrazol-5-ylmethyl)amino]-3-hydroxy-2-methyl-2-dimethoxymethyl-3,4-dihydro-2H-1-benzopyran] | 107% | < 2 µM | 1.7 µM | > 2000 mg/kg |
| – | COC(OC)[C@@]1(C)Oc2ccc([N+](=O)[O-])cc2[C@@H](N(Cc2nnn(C)n2)c2ccc(OC(F)(F)F)cc2)[C@@H]1O [Example 80, (2S,3S,4R)-6-nitro-4-[N-(4-trifluoromethoxyphenyl)-N-(2-methyl-2H-tetrazol-5-ylmethyl)amino]-3-hydroxy-2-methyl-2-dimethoxymethyl-3,4-dihydro-2H-1-benzopyran] | 95% | 5 µM | – | – |
| – | COC(OC)[C@]1(C)Oc2ccc([N+](=O)[O-])cc2[C@H](N(Cc2nnn(C)n2)c2ccc(OC(F)(F)F)cc2)[C@H]1O [Example 82, (2R,3R,4S)-6-nitro-4-[N-(4-trifluoromethoxyphenyl)-N-(2-methyl-2H-tetrazol-5-ylmethyl)amino]-3-hydroxy-2-methyl-2-dimethoxymethyl-3,4-dihydro-2H-1-benzopyran] | 69% | < 2 µM | 1.3 µM | – |
| – | COC(OC)[C@]1(C)Oc2ccc([N+](=O)[O-])cc2[C@@H](N(Cc2nnn(C)n2)c2ccc(OC(F)(F)F)cc2)[C@@H]1O [Example 84, (2R,3S,4R)-6-nitro-4-[N-(4-trifluoromethoxyphenyl)-N-(2-methyl-2H-tetrazol-5-ylmethyl)amino]-3-hydroxy-2-methyl-2-dimethoxymethyl-3,4-dihydro-2H-1-benzopyran] | 48% | 5.6 µM | – | – |
| – | COC[C@]1(C)Oc2ccc([N+](=O)[O-])cc2[C@@H](N(Cc2nnn(C)n2)c2ccc(F)cc2)[C@@H]1O [Example 99, (2S,3S,4R)-6-nitro-4-[N-(4-fluorophenyl)-N-(2-methyl-2H-tetrazol-5-ylmethyl)amino]-3-hydroxy-2-methyl-2-methoxymethyl-3,4-dihydro-2H-1-benzopyran] | 69% | 20.8 µM | – | – |

| SMILES | IC50 (isolated rat aorta) | protective effect on neuron cell: Inhibition (%, 30 μM compound addition) (cortical neuron cells; 24 hours) | IC50 (cortical neuron cells; Cortical neurone, 24 h) | IC50 (cortical neuron cells; 24 hours) | LD50 [1] |
| --- | --- | --- | --- | --- | --- |
| CC1(C)Oc2ccc(C#N)cc2[C@H](N(Cc2ncc[nH]2)c2ccc(Cl)cc2)[C@H]1O [BMS-191095, reference compound] | 2.14 µM | – | – | – | – |
| COC(OC)[C@@]1(C)Oc2ccc(N)cc2[C@@H](N(Cc2nnn(C)n2)c2ccc(C)cc2)[C@@H]1O [Example 24] | > 30 µM | 98% | – | 6.1 µM | – |

Source: patent US7414068B2, “Benzopyran derivatives substituted with secondary amines including tetrazole, method for the preparation thereof and pharmaceutical compositions containing them” (Dongbu Hannong Chemical Co., Ltd., priority 2002, dated 2008)
